The record followed here is patent publication US20080108511A1, “GENES AND GENE PRODUCTS […] EXPRESSED DURING HEART FAILURE” (priority 2006, published 2008).

Marks after values point to notes of the source that are not given here.

The data set concerns turkey poults. The following applies: in vivo. The source says: The values shown in Table 4 are the average values±the standard error. The values in parentheses indicate the number of hearts. CK is creatine kinase, LDH is lactate dehydrogenase, and AST is aspartate transaminase. Ca^2+-ATPase activity was normalized per gram of protein. * represents p<0.05.

`O=C1OCCN1/N=C/c1ccc([N+](=O)[O-])o1` [Fz, furazolidone]: the ATP synthase is on record as 87 ± 4* (4) IU/g, the LDH is on record as 219 ± 12* (9) IU/g, the Myoglobin was 27.2 ± 3.1* (5) μg/g and the “SR Ca2+ cycling: Ca2+-ATPase” value is given as 3.4 ± 0.6* (4) IU/g. Further, the “SR Ca2+ cycling: Ca2+-ATPase pump” value is listed as 24.4 ± 6.3* (9) nM/s, the “Total ATPase” value is listed as 16.8 ± 0.9* (4) IU/g, the Total protein is given as 111 ± 3.0* (8) mg/g and the myofibrillar protein content was found to be 34.6 ± 2.5 mg/g.
